For 14 molecules, Ki, Ratio Ki and inhibition results are on record in ChEMBL document CHEMBL1146935, “A novel series of urea-based peptidomimetic calpain inhibitors” (Bioorg Med Chem Lett, 2006).

Broadly, the Ki is a dissociation constant, usually derived from enzyme kinetics or from competition with a known ligand. Read a high Ki as weaker binding. As usually defined, the inhibition is how much of the control response was suppressed. Read a low inhibition as little suppression.

In experiment [1] the target is T1, Calpain-1 catalytic subunit (Sus scrofa, UniProt P35750).
T1 sequence (P35750 whole entry): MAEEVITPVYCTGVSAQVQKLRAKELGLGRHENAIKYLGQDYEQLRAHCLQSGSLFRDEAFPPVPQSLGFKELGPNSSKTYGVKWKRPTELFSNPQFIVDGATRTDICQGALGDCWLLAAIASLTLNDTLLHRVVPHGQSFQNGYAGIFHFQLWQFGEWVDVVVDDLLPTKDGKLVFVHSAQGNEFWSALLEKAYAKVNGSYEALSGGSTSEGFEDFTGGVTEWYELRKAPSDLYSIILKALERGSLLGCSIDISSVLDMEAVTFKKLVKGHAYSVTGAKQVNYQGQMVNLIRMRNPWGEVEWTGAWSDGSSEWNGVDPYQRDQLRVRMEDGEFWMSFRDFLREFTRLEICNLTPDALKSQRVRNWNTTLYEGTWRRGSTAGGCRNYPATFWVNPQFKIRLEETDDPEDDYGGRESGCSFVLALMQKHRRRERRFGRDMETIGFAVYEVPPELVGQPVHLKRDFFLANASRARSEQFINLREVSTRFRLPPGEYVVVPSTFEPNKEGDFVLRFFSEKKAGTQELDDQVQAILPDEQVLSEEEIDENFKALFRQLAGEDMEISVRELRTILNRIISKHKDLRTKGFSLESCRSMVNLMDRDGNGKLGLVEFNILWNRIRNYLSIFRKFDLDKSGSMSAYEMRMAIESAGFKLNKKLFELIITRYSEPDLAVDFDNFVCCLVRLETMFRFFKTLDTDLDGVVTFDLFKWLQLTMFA
The experiment is described as follows: Inhibition of mu calpain in porcine erythrocyte.

Another experiment deals with Cathepsin B (Homo sapiens, UniProt P07858). Nature of the experiment: Inhibition of cathepsin B from human brain.
The nature of experiment [2]: Selectivity for porcine mu calpain over human cathepsin B.
For the next experiment, the species on record is Sus scrofa. Nature of the experiment: Inhibition of mu calpain in porcine erythrocyte at 100 uM.

Regarding `CCN(CCOCc1ccccc1)C(=O)N[C@H](C=O)Cc1ccccc1`, the Ki in experiment [1] is 1150 nM. Still for that read-out and setting: the result for `CC(C)N(CCc1ccccc1)C(=O)N[C@H](C=O)Cc1ccccc1` reads 2350 nM. On to `CC(C)CC(C(=O)N[C@H](C=O)Cc1ccccc1)C(=O)OCc1ccccc1` (some centres not stated), for which the inhibition constant (Ki) was found to be 15 nM in experiment [1] and 120 nM on Cathepsin B. In addition, the Ratio Ki in experiment [2] was 8.

In the case of `CC(C)N(CCCCc1ccccc1)C(=O)N[C@H](C=O)Cc1ccccc1`, the affinity in experiment [1] corresponds to a Ki of 400 nM.

Molecule `CN(CCOCc1ccccc1)C(=O)N[C@H](C=O)Cc1ccccc1` gave a Ki in experiment [1] of 6690 nM. `CC(C)CN(CCOCc1ccccc1)C(=O)N[C@H](C=O)C(C)C`: in experiment [1], the inhibition constant (Ki) came to 9270 nM. As for `CC(C)N(CCOCc1ccccc1)C(=O)N[C@H](C=O)Cc1ccccc1`, the results for the Ki (in experiment [1]; on Cathepsin B) were 230 nM and 22100 nM, respectively. Further, the Ratio Ki in experiment [2] came to 96.1.

With `CC(C)C(C(=O)N[C@H](C=O)Cc1ccccc1)C(=O)OCc1ccccc1` (some centres not stated), the Ki was 10 nM in experiment [1] and 20 nM at Cathepsin B. The Ratio Ki in experiment [2] came out at 2.

In the case of `CC(C)N(CCCc1ccccc1)C(=O)N[C@H](C=O)Cc1ccccc1`, the Ki in experiment [1] is 1160 nM. The same measure, in the same setting: the result for `CC(C)CN(CCOCc1ccccc1)C(=O)NCC=O` reads 88700 nM; that for `O=C[C@H](Cc1ccccc1)NC(=O)N(CCOCc1ccccc1)Cc1ccccc1`, 6650 nM.

On to `CC(C)N(Cc1ccccc1)C(=O)N[C@H](C=O)Cc1ccccc1`, for which the Ki in experiment [1] worked out at 6820 nM. The Ki values of the last two molecules are within 1.5-fold of each other. For the molecule `CC(C)NC(=O)N[C@H](C=O)Cc1ccccc1`, the inhibition in the experiment listed under Sus scrofa stood at 13%. `CC(C)CN(CCOCc1ccccc1)C(=O)N[C@H](C=O)Cc1ccccc1`: the Ki came out at 150 nM in experiment [1] and 33300 nM on Cathepsin B. The Ratio Ki in experiment [2] was found to be 222.
